Measured values from PubChem BioAssay AID1963829 (Molecular Pharmacology Branch, DTP, NCI, 2024).

System: 935938-334-R-J1-PDC complex spheroid viability
Assay: Anticancer human tumor 935938-334-R-J1-PDC patient-derived small intestine adenocarcinoma cell line growth inhibition [POLQ]
Details: for IC50: curve of first compound; for viability, T/C: stronger effect = lower value; active means viability on the fitted dose curve at most 10% of control; inactive means the rest
Method in brief: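 Complex spheroid viability model combining PDC tumour cells with endothelial (HUVEC) and MSC stromal cells. Novobiocin, ART-558 or RP6685 were tested singly and in combination with standard and investigational anticancer drugs. Each was titrated in half-log steps from near clinical Cmax, or from 10 microM where Cmax was unknown.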

[1] = second compound 0.0316 µM, first compound 0.0316 µM
[2] = second compound 0.0316 µM, first compound 0.1 µM
[3] = second compound 0.0316 µM, first compound 0.316 µM
[4] = second compound 0.0316 µM, first compound 1 µM
[5] = second compound 0.0316 µM, first compound 3.16 µM
[6] = second compound 0.0316 µM, first compound 10 µM
[7] = second compound 0.1 µM, first compound 0.0316 µM
[8] = second compound 0.1 µM, first compound 0.1 µM
[9] = second compound 0.1 µM, first compound 0.316 µM
[10] = second compound 0.1 µM, first compound 1 µM
[11] = second compound 0.1 µM, first compound 3.16 µM
[12] = second compound 0.1 µM, first compound 10 µM
[13] = second compound 0.316 µM, first compound 0.0316 µM
[14] = second compound 0.316 µM, first compound 0.1 µM
[15] = second compound 0.316 µM, first compound 0.316 µM
[16] = second compound 0.316 µM, first compound 1 µM
[17] = second compound 0.316 µM, first compound 3.16 µM
[18] = second compound 0.316 µM, first compound 10 µM
[19] = second compound 1 µM, first compound 0.0316 µM
[20] = second compound 1 µM, first compound 0.1 µM
[21] = second compound 1 µM, first compound 0.316 µM
[22] = second compound 1 µM, first compound 1 µM
[23] = second compound 1 µM, first compound 3.16 µM
[24] = second compound 1 µM, first compound 10 µM
[25] = second compound 3.16 µM, first compound 0.0316 µM
[26] = second compound 3.16 µM, first compound 0.1 µM
[27] = second compound 3.16 µM, first compound 0.316 µM
[28] = second compound 3.16 µM, first compound 1 µM
[29] = second compound 3.16 µM, first compound 3.16 µM
[30] = second compound 3.16 µM, first compound 10 µM
[31] = second compound 10 µM, first compound 0.0316 µM
[32] = second compound 10 µM, first compound 0.1 µM
[33] = second compound 10 µM, first compound 0.316 µM
[34] = second compound 10 µM, first compound 1 µM
[35] = second compound 10 µM, first compound 3.16 µM
[36] = second compound 10 µM, first compound 10 µM
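Further: spheroids exposed to drugs for seven days before viability read.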
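Wherever viability, T/C is given: 100% = DMSO vehicle control wells.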

CCc1cc2c(N3CCc4c(cc(Cn5ccnc5)cc4-c4cn(C)nc4C(F)(F)F)C3=O)cc(C)nc2c(OC)n1 + Nc1ccc(C#CCN(C(=O)Cc2ncc(C(F)(F)F)cc2C(F)(F)F)c2ccc(F)cc2)nn1
inactive: viability, T/C [1] 93.5% | viability, T/C [2] 62% | viability, T/C [3] 63.9% | viability, T/C [4] 73.7% | viability, T/C [5] 74.5% | viability, T/C [6] 66.7% | viability, T/C [7] 67.9% | viability, T/C [8] 66.2% | viability, T/C [9] 57.1% | viability, T/C [10] 52.9% | viability, T/C [11] 70.6% | viability, T/C [12] 57.8% | viability, T/C [13] 74.1% | viability, T/C [14] 65% | viability, T/C [15] 77.6% | viability, T/C [16] 60.9% | viability, T/C [17] 62.3% | viability, T/C [18] 63.5% | viability, T/C [19] 89.8% | viability, T/C [20] 60.6% | viability, T/C [21] 65% | viability, T/C [22] 65.5% | viability, T/C [23] 56.5% | viability, T/C [24] 49.1% | viability, T/C [25] 85.2% | viability, T/C [26] 63.3% | viability, T/C [27] 62% | viability, T/C [28] 58.1% | viability, T/C [29] 72.2% | viability, T/C [30] 56.6% | viability, T/C [31] 70.5% | viability, T/C [32] 75.1% | viability, T/C [33] 82.3% | viability, T/C [34] 72.8% | viability, T/C [35] 66.4% | viability, T/C [36] 61.1%
> 10 µM: IC50 (second compound 0.0316 µM) | IC50 (second compound 0.1 µM) | IC50 (second compound 0.316 µM) | IC50 (second compound 1 µM) | IC50 (second compound 3.16 µM) | IC50 (second compound 10 µM)

Nc1ccn(C2OC(CO)C(O)C2(F)F)c(=O)n1 (centres undefined) + COC1C(OC(N)=O)C(O)C(Oc2ccc3c(O)c(NC(=O)c4ccc(O)c(CC=C(C)C)c4)c(=O)oc3c2C)OC1(C)C
inactive: viability, T/C [1] 25.5% | viability, T/C [2] 22.1% | viability, T/C [3] 18.8% | viability, T/C [4] 15% | viability, T/C [5] 14.9% | viability, T/C [6] 14.1% | viability, T/C [7] 30.7% | viability, T/C [8] 18.8% | viability, T/C [9] 17.8% | viability, T/C [10] 16.9% | viability, T/C [11] 16.9% | viability, T/C [12] 14.5% | viability, T/C [13] 32.2% | viability, T/C [14] 22.6% | viability, T/C [15] 17.7% | viability, T/C [16] 17.7% | viability, T/C [17] 16.3% | viability, T/C [18] 14.6% | viability, T/C [19] 28.5% | viability, T/C [20] 23.4% | viability, T/C [21] 20.2% | viability, T/C [22] 13.6% | viability, T/C [23] 18.1% | viability, T/C [24] 16.5% | viability, T/C [25] 26.1% | viability, T/C [26] 25.7% | viability, T/C [27] 21.7% | viability, T/C [28] 16.4% | viability, T/C [29] 16.7% | viability, T/C [30] 14.9% | viability, T/C [31] 28.8% | viability, T/C [32] 23.6% | viability, T/C [33] 18.6% | viability, T/C [34] 14.4% | viability, T/C [35] 16.8% | viability, T/C [36] 17.9%
< 0.0316 µM: IC50 (second compound 0.0316 µM) | IC50 (second compound 0.1 µM) | IC50 (second compound 0.316 µM) | IC50 (second compound 1 µM) | IC50 (second compound 3.16 µM) | IC50 (second compound 10 µM)
